We go through four compounds from patent publication US20110118337A1, “Method of Using Compositions Comprising MIR-192 and/or MIR-215 for the Treatment of Cancer” (Merck Sharp & Dohme Corp., priority 2008, published 2011).

One data set concerns TOV21G cells. Kind of data set: miRNA and p21 expression by quantitative RT-PCR after adriamycin treatment. The format is cell-based. The procedure:
(§1) TOV21G cells and A549 cells were obtained from the American Type Culture Collection (ATCC). TOV21G p53 and A549 p53 matched pair cell lines were created by stably infecting TOV21G and A549 cells with a lentivirus encoding either H1-term or p53 shRNA. Cells were cultured in Dulbecco's Modified Eagles Medium, supplemented with 10% fetal bovine serum, streptomycin, penicillin and L-glutamine.
(§2) MicroRNA expression was measured in the p53 matched cell lines (p53+/+ or p53−/− sh) either untreated or following treatment with various doses of the DNA damaging agent adriamycin (0, 10, 50 and 200 nM adriamycin). Forty-eight hours post treatment, RNA was harvested and the expression levels of miR-34a, miR-192, miR-215 and p21 were determined by quantitative RT-PCR with Taqman analysis carried out as described in Raymond C. K. et al., RNA 11: 1737-1744 (2005).

Another data set relates to A549 cells. Described as above. The format is cell-based. The procedure:
as §1, §2

Data set [1] deals with HCT116DICER^ex5 cells. Kind of data set: Cell cycle FACS screen of pools of three siRNAs per gene (G1 after nocodazole, G2/M after aphidicolin). The format is cell-based, human. To be noted: pools of 3 siRNAs/gene at 100 nM final, FACS 66 hours post-transfection, average of two experiments; for % G2 (Avg), Aphidicholin+: aphidicolin 2 μg/mL 18 h; for % G1 (Avg), Nocodazole+: nocodazole 100 ng/mL 18 h. The source says: To identify targets whose modulation influences the cell cycle arrest phenotype observed with miR-192 expression, the 62 candidate genes identified as described in Example 2 and shown in TABLE 3 were silenced individually by transfecting a pool of 3 gene-specific siRNA duplexes per gene (each directed to a different region of the gene) into HCT116DICER^ex5 cells. The siRNA duplex sequences (3 duplexes per gene) used to target each of the 62 genes are shown below in TABLE 5. The siRNA duplex oligonucleotides were obtained from Sigma-Genesys, as described in Linsley, P. S. et al., Mol Cell Biol 27:2240-2252 (2007).
HCT116DICER^ex5 cells were transiently transfected with pools of three different siRNA duplexes per gene at a 100 nM final concentration using Lipofectamine RNAiMax (Invitrogen), according to the manufacturer's instructions. At 48 hours post transfection, cells were left untreated, treated with nocodazole (100 ng/mL, Sigma-Aldrich), or treated with aphidicolin (2 μg/mL, Sigma-Aldrich) for an additional 18 hours before harvesting. The cells transfected with the siRNA pools were then screened by FACS analysis as described in Example 3 for the percentage of cells arrested in G1 or G2/M as compared to the negative siRNA luciferase control.
The siRNA pools tested in this screen were ranked according to the percentage of cells arrested in G1 or G2/M following transfection, as compared with a negative control siRNA targeting luciferase. To avoid being misled by possible RNAi off-target effects, the siRNA pools were deconvoluted to identify genes for which at least 2 different siRNA duplexes from the pool caused the cell cycle arrest phenotype (data not shown).
TABLE 6 summarizes the data obtained 66 hours post-transfection by FACS analysis showing the cell cycle distribution of the HCT116DICER^ex5 cells transfected with siRNA pools of 3 siRNAs/gene. Each pool was analyzed in two separate experiments, and the average percentage of the cells trapped in G1 (following nocodazole treatment), or G2/M (following aphidicolin treatment) are shown in TABLE 6.

Data set [2] concerns HCT116DICER^ex5 cells. Kind of data set: Cell cycle FACS analysis of siRNAs against top G1 and G2 arrest genes (nocodazole or aphidicolin). The format is cell-based, human. The note with it: 100 nM siRNA. The protocol: Of the 62 genes shown above in TABLE 6, the 10 genes whose targeting by siRNA caused the largest percentage of cells to arrest in G1, listed below in TABLE 7, were transfected into HCT116DICER^ex5 cells in another experiment as follows.
HCT116DICER^ex5 cells were transfected with […] miR-192 or 100 nM siRNA against luciferase, or 100 nM siRNA (one siRNA duplex of the pool of three) against the putative miR-192 target of interest, as indicated in TABLES 7 and 8. At 48 hours post transfection, cells were treated with nocodazole or aphicicolin for an additional 18 hours prior to FACS analysis. The results for the nocodazole treated cells (% of cells in G1) are provided in TABLE 7, and graphically illustrated in FIG. 3A. The results for the aphidicolin treated cells (% of cells in G2) are provided in TABLE 8 and graphically illustrated in FIG. 3B.
On the technique in general: A flow cytometer gives signals particle by particle.

For data set [3], the system named is HCT116DICER^ex5 cells. Kind of data set: Transfection of siRNA pools (G1 or G2 gene set) at suboptimal levels, cell cycle FACS analysis (nocodazole or aphidicolin). It is filed as cell-based, human. To be noted: 100 nM, 66 hours post transfection. The procedure: […] At 48 hours post-transfection into HCT116DICER^ex5 cells, the cells were treated with nocodazole for an additional 18 hours prior to FACS analysis.
[…] At 48 hours post-transfection into HCT116DICER^ex5 cells, the cells were treated with aphidicolin for an additional 18 hours prior to FACS analysis.

Data set [4] has as its system 3′ UTRs of the 18 candidate genes in U-2-OS cells. Kind of data set: 3′ UTR luciferase reporter analysis. The note with it: 10 nM, 24 hours post-transfection. It is filed as cell-based. The source says: In order to test whether miR-192 is regulating these genes through seed sequence-specific recognition of binding sites within their 3' UTRs, a series of reporter constructs were generated containing the entire natural 3' UTRs of the 18 candidate genes (BCL2, CDC7, CUL5, DLG5, DTL, ERCC3, HOXA10, HRH1, LMNB2, MAD2L1, MCM10, MIS12, MPHOSPH1, PIM1, PRPF38A, […]1, SEPT10 and SMARCB1) inserted downstream of a luciferase open reading frame (SwitchGear Genomics) to create 3' UTR luciferase reporter plasmids. U-2-OS cells were transfected first with 10 nM miR-192 or 10 nM miR-192 mutant, and subsequently transfected 4 to 6 hours later with these 3' UTR reporter plasmids. A renilla luciferase expression plasmid from dual luciferase system (Promega) was used as an internal control. Luciferase activity was measured at 24 hours post-transfection, and quantified relative to renilla luciferase activity.
In general terms: A reporter such as luciferase makes a cellular process visible.

Data set [5] deals with CDC7, LMNB2, MAD2L1 and CUL5. The data set is described as follows: Western blot analysis. The note with it: HCT116DICER^ex5 cells, 10 nM, data not shown. It is filed as cell-based, human. The protocol:
HCT116DICER^ex5 cells were transfected with 10 nM siRNA against luciferase or 10 nM miR-192 or 10 nM miR-192 mutant, and lysates were prepared at 28 hours or 48 hours post-transfection. For immunoblotting, 30 μg of whole cell lysate extracted in a modified RIPA buffer (150 mM NaCl, 50 mM Tris pH 7.4, 1 mM EDTA, 1% NP-40, 0.1% SDS) was used per sample. CDC7, LMNB2, MAD2L1 and CUL5 were detected by Western blot using anti-CDC7 (sc-56275, Santa Cruz Biotechnology Inc.), anti-LMNB2 (MAB3536, Millipore), anti-MAD2L1 (ab55452, Abcam) and anti-CUL5 (Invitrogen) antibodies, and protein levels were compared to the level of β-actin expression as detected by an anti-β-actin antibody (Abcam).

The subject of data set [6] is HCT116DICER^ex5 cells. The data set is described as follows: Cell cycle distribution by propidium iodide FACS after miR-192 duplex transfection (untreated, nocodazole or aphidicolin). It is filed as cell-based, human. To be noted: for % Cells with 2N (G1/S) / % Cells with 4N (G2/M): 10 nM duplex, 66 hours after transfection. The procedure: At 48 hours post transfection, cells were left untreated, treated with nocodazole (100 ng/mL, Sigma-Aldrich), or treated with aphidicolin (2 μg/mL, Sigma-Aldrich) for an additional 18 hours before harvesting. The cells were then trypsinized, collected, fixed and stained with a propidium iodide solution. BrdU-labeling was performed according to the manufacturer's instructions (BD-Pharmigen). For phospho-histone H3 analysis, cells were fixed and permeabilized with IPF buffer (100 mM PIPES pH 6.8, 10 mM EDTA, 1 mM MgCl2, 0.2% Triton X-100, 4% formaldehyde) and stained with propidium iodide and anti-phospho-histone H3 antibody conjugated to Alexa-488 (Cell Signaling Technology). The cells were analyzed using a FACSCalibur flow cytometer (Beacton Dickinson) and FlowJo software (Tree Star, Inc.).

d = 2'-deoxy (DNA); r = 2'-OH (RNA)

As for `COc1cccc2c1C(=O)c1c(O)c3c(c(O)c1C2=O)C[C@@](O)(C(=O)CO)C[C@@H]3O[C@H]1C[C@H](N)[C@H](O)[C@H](C)O1` [adriamycin], the “miR-192, miR-215 and miR-34a expression” value in the data set with TOV21G cells (TOV21G cells, adriamycin 10, 50 or 200 nM, 48 hours post treatment) is “up-regulation”; with A549 cells (A549 cells, adriamycin 10, 50 or 200 nM, 48 hours post treatment) it was “up-regulation”. The “expression of miR-192 and miR-215” value in the data set with TOV21G cells (p53 deficient TOV21G cells, adriamycin 10, 50 or 200 nM) was “not”; in the data set with TOV21G cells (wild type (p53+/+) TOV21G cells, adriamycin 10, 50 or 200 nM) it was “upregulated in a dose dependent manner”; in the data set on A549 cells (p53 deficient A549 cells, adriamycin 10, 50 or 200 nM), “not”; in the data set with A549 cells (wild type (p53+/+) A549 cells, adriamycin 10, 50 or 200 nM), “upregulated in a dose dependent manner”. Besides, the p21 expression entry in the data set with TOV21G cells (p53 knockdown TOV21G cells) and in the data set with A549 cells (p53 knockdown A549 cells) was “lack of p21 induction” in each case.
In the case of FGF2, in the data set with HCT116DICER^ex5 cells [1], the “% G2 (Avg), Aphidicholin+” value worked out at 19.8% and the “% G1 (Avg), Nocodazole+” value worked out at 33.7%.
For “Luc siRNA: Control siRNA targeting luciferase, SEQ ID NOS: 11/12 (chain 1 UCGAAGUAUUCCGCGUACGTT; chain 2 CGUACGCGGAAUACUUCGATT; sugars from the 5' end r19 d2, backbone not given here) [reference compound]”, in the data set on HCT116DICER^ex5 cells [2] (aphidicolin 18 hours from 48 hours post transfection), the “% Cells in G2” value worked out at 19.2%. In addition, the “% Cells in G1” value with HCT116DICER^ex5 cells [2] (nocodazole 18 hours from 48 hours post transfection) came to 18.5%. Also, in the data set on HCT116DICER^ex5 cells [3] (after aphidicolin treatment), the “% G1” value was determined as 66.3% and the “% G2” value turned out to be 15.6%. Moreover, in the data set with HCT116DICER^ex5 cells [3] (nocodazole), the “% G1” value is reported as 11.7% and the “% G2” value turned out to be 83.8%. In the data set on HCT116DICER^ex5 cells [1], the “% G2 (Avg), Aphidicholin+” value is listed as 18.9% and the “% G1 (Avg), Nocodazole+” value is given as 13.8%.
For the compound “miR-192 mutant: Seed region mutant miR-192 duplex, guide CUGCACUAUGAAUUGACAGCC (SEQ ID NO:8), passenger SEQ ID NO:9 (sense CUGUCAAUUCAUAGUGCUGAU; listed as RNA, chemistry not given here) [reference compound]”, in data set [4], the “regulation of 3′ UTR luciferase reporters of the 18 genes” value is “not”. Further, the protein level entry in data set [5] is given as “not”. The “% Cells with 2N (G1/S)” value with HCT116DICER^ex5 cells [6] (aphidicolin 2 μg/mL 18 hours) was determined as 66.5%; with HCT116DICER^ex5 cells [6] (nocodazole 100 ng/mL 18 hours) it was 17%; in the data set on HCT116DICER^ex5 cells [6] (untreated), 49.9%. In addition, the entries for the “% Cells with 4N (G2/M)” value in the data set on HCT116DICER^ex5 cells [6] (aphidicolin 2 μg/mL 18 hours), in the data set with HCT116DICER^ex5 cells [6] (nocodazole 100 ng/mL 18 hours) and in the data set on HCT116DICER^ex5 cells [6] (untreated) were 16.1%, 66.3% and 30.8%, respectively. For the same compound, in the data set on HCT116DICER^ex5 cells [6] (treated with aphidicolin), the “accumulation in the G2/M phase” value was “did not”.
